Here are results for two compounds from EP4656722A1, “OR2AT4 RECEPTOR AGONIST APTAMERS AND USES THEREOF” (Fundacion Instituto De Investigacion Sanitaria Fundacion …, priority 2024, dated 2025).

The subject of test [1] is HaCaT-OR2AT4-Myc-DDK transfectants. Description: XTT cell proliferation assay in HaCaT-OR2AT4-Myc-DDK transfectants. The following applies: 250 µM, days 1, 3 and 5, compared to vehicle (Control). The class given is cell-based, human. In general terms: Formazan colour is commonly taken as a measure of viable cells.
Test [2] has as its target T1, OR2AT4 (Homo sapiens, UniProt A6NND4).
T1 sequence (A6NND4 1-320): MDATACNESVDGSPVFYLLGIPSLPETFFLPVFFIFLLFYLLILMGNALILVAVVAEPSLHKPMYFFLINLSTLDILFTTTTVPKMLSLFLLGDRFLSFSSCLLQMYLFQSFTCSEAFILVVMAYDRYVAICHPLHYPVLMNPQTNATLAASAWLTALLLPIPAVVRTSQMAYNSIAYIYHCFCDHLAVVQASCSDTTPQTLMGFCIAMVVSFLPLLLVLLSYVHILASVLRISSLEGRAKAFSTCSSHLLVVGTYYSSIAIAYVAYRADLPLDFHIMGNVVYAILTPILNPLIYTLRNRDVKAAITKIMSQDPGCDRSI
Description: CRE-luciferase reporter activity assay in 293 cells stably expressing OR2AT4. The class given is cell-based. The arrangement: GeneScript (pcDNA3.1-Hygro for GNAL). The following applies: synthetic odorants 400 µM, 4 hours, clone 293-OR2AT4-Golf-clone#2. An excerpt:
• Figure 1. Generation of a 293 clone that stably expresses the OR2AT4 receptor. The 293-OR2AT4-Golf transfectant was generated by means of calcium phosphate cotransfection into 293 cells of the expression plasmids for the OR2AT4 receptor (NM_001005285, pCMV6-Entry-OR2AT4-Neo; Origene) and for the Golf subunit of G proteins, generated by means of subcloning the hGNAL gene (NM_001261443.1) into the expression plasmid (pcDNA3.1-Hygro, GeneScript). Stable transfectants were selected on medium containing neomycin and hygromycin B, and clone 293-OR2AT4-Golf-clone#2 was obtained by limiting dilution. […] Replicates of the reactions for the target and housekeeping genes, which were performed simultaneously for each template cDNA analysed, were included in triplicate. […] Data normalisation was calculated by means of the formula [Luc/Renilla(N)-Luc/Renilla(lowest)]/[Luc/Renilla(highest)-Luc/Renilla(lowest)]. […] Means were calculated using three replicates per condition, n=3. […] Statistical significance was determined using Student's t test (*p<0.05 and **p<0.001, with respect to control). […] The anti proliferative effect of the aptamers on the K562 cell line was evaluated in a colorimetric proliferation assay based on the reduction of tetrazolium salts (XTT). […]
For orientation: In a reporter assay the amount or activity of a reporter protein is the signal.

For test [3], the target named is T1, OR2AT4. The arrangement: host or cells: keratinocytes. The following applies: cited from earlier work.
For test [4], the system named is human hair follicles. The following applies: ex vivo; cited from earlier work.
Test [5] deals with telogen effluvium. The following applies: solution containing 1% Sandalore applied for 24 weeks, 60 patients with telogen effluvium; cited from earlier work.

With `CC1=CCC(CCC(C)CO)C1(C)C` (stereo not shown) [Brahmanol, sandal cyclopentane], the cell proliferation result in test [1] is given as “significant proliferative response”. For the same compound, the “cAMP production (normalised luciferase activity)” value in test [2] is “activated cAMP production”. In test [3], the “activation of the OR2AT4 receptor expressed in keratinocytes” value is “capable of activating the OR2AT4 receptor”.

In the case of `CC1=CCC(CCC(C)C(C)O)C1(C)C` (stereo not shown) [Sandalore, sandal pentanol], in test [4], the apoptosis result is reported as “reducing apoptosis”, the hair growth entry is “promotes hair growth” and the “production of the growth factor IGF-1” value is “increasing the production”. In addition, in test [1], the cell proliferation entry is “significant proliferative response”. For the same compound, in test [2], the “cAMP production (normalised luciferase activity)” value is reported as “activated cAMP production”. In addition, in test [3], the “activation of the OR2AT4 receptor expressed in keratinocytes” value was “capable of activating the OR2AT4 receptor”. Besides, the “degree of hair loss, hair volume, terminal/vellous hair ratio, anagen/catagen-telogen ratio, patient's self-esteem” value in test [5] is on record as “improvement”.
